One molecule from PMC4309560, “Creating Novel Activated Factor XI Inhibitors through Fragment Based Lead Generation and Structure Aided Drug Design” (PLoS ONE, 2015) can be followed below.

The nature of one series: Caco2 efflux. Type of series: in vitro ADME. The conditions noted are these: human, Caco-2; Caco2, Papp B to A / Papp A to B, pH 7.4 at side A. From the text: Efflux was studied in the same Caco2 cells with the modification that HBSS buffer pH 7.4 was used on both sides of the monolayer. The permeability was studied in the apical to basolateral direction (Papp AB) as well as in the basolateral to apical direction and (Papp BA). Efflux ratios were derived from the following equation: Papp BA/Papp AB.
A general note: Caco-2 cells form a polarised layer with tight junctions and transporters.

For a further series, the target named is T1, FXIa CD (Homo sapiens, UniProt P03951, C500S/K455A/S452A/T493A).
T1 construct: purification of the catalytic domain (residues 370–607) was carried out as described by Jin et al; made in house
T1 sequence (P03951 388-625 S452A/K455A/T493A/C500S): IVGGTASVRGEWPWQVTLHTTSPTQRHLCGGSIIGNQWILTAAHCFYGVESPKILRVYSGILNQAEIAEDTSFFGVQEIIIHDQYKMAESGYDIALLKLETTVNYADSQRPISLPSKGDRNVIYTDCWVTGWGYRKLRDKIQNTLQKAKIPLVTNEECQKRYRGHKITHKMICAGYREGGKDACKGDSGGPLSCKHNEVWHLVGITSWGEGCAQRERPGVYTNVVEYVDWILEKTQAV
Description: FXIa surface plasmon resonance (Biacore) inhibition in solution assay. Type of series: binding. From the text:
SPR. […] The SPR data were then used to rank and select compounds for X-ray crystallography experiments. The SPR method was based on an inhibition in solution assay in which compound 4, immobilized on the biosensor surface, served as a probe for the FXIa catalytic site. […] Fig. 4 illustrates the design of compound 4 based on the crystal structure of FXIa in complex with compound 1. Since any ligand that binds to the S1 pocket competes with compound 4 for binding to FXIa CD, it is possible to derive the K D for that ligand [60]. The initial binding rate of the protein to compound 4, K on, was used to determine the percentage of free protein in solution which changed by varying the concentration of the competing ligand. The free protein concentration was plotted against the logarithm of the ligand concentration and a sigmoidal dose–response curve-fit model was applied to determine the K D-value.
The tethered free amine ligand 4 was covalently linked to the dextran layer on the CM5 sensor chip (GE Healthcare/Biacore) using the Amine Coupling Kit (Healthcare/Biacore) and performed according to the manufacturer’s recommendations. Carboxyl groups on the dextran layer were activated by injecting a 1:1 mixture of 0.5 M N-ethyl-N’ (3-dimethylaminopropyl)-carbodiimide and 0.5 M N-hydroxysuccinimide at 10 μL/min for 7 min. The activated carboxyl groups on the control channels were blocked by injecting a 1 M ethanolamine solution for 7 min at 10 μL/min. […] The remaining activated groups were blocked with 1 M ethanolamine. Compounds were tested in a concentration response curve. The compounds were serially diluted 1:3 in DMSO to form a 10-point concentration response curve with 5 mM for the highest concentration. The FXIa CD was added to the plate at a final concentration of 50 nM and the mixture was incubated for 15 min at RT. The plate was then sealed and placed in the Biacore 3000 instrument. Samples were injected at 20 μL/min for 2 min. […] The value used to calculate percent inhibition of binding was the slope of the response measured 8 s after the start of the injection. […]
(In general: In SPR one partner is held on a chip, and binding of the other changes the refractive index at the surface.)

Series [1] is described as follows: Chromatographic determination of lipophilicity. The conditions noted are these: reversed-phase UPLC, Waters BEH C18 stationary phase, pH 7.4; measured by liquid chromatography, pH7.4. Format: physicochemical. From the text: The chromatographic data was obtained utilizing a Waters Aquity UPLC chromatographic system running a gradient from 5–95% acetonitrile at pH7.4. The stationary phase was a Waters BEH C18 2.1x50 mm. Standardized retention data were obtained by normalization against a set of compounds with precisely determined (octanol/water) logD-values. Lipophilicity values for samples were derived from a corresponding calibration curve.

As to `O=C(N[C@@H](Cc1ccccc1)C(=O)NCc1cc(=O)[nH]c2ccc(Cl)cc12)c1ccc2[nH]c(=O)cc(O)c2c1` [Compound 13, (S)-N-(1-{(6-Chloro-2-oxo-1,2-dihydroquinolin-4-yl)methylamino}-1-oxo-3-phenylpropan-2-yl)-4-hydroxy-2-oxo-1,2-dihydroquinoline-6-carboxamide], the efflux ratio in “Caco2 efflux” is > 4.6. Also, the Kd at FXIa CD stood at 0.5 nM. In series [1], this molecule registered a chromatographic logD of 0.87.

The term efflux ratio denotes the permeability from basolateral to apical divided by that in the opposite direction, in the common usage. In general, Kd refers to the concentration at which binding is half-saturated. A higher Kd goes with lower affinity. Broadly, the chromatographic logD is a lipophilicity value derived from retention on a column. Read a low chromatographic logD as lower lipophilicity.
